# Measured values: patent publication US5703056A, “Non-invasive imaging of gene transfer” (priority 1995, dated 1997)
# Like-named read-outs stand apart in the source and are kept apart here.
# Tests used:
# RG2TK+ and RG2 tumors = test: Tissue sampling of FIAU- and IUdR-derived radioactivity in i.c. and s.c. RG2TK+ and RG2 tumors; assay type: in vivo, rat; settings: 24 h, percent dose per gram
# Procedure: Animal preparation and tumor inoculation Two male Fisher 344 rats weighing 250±20 g were anesthetized with a gas mixture consisting of 2% Isoflurane, 70% nitrous oxide and 30% oxygen. A 2% lidocaine gel was applied to the ears and the head was fixed with a stereotaxic device. After midline scalp incision, a burr hole was made through the skull 1 mm posterior and 3 mm lateral to the bregma. The tumor cell suspensions were aspirated into a 50 μl gas tight Hamilton syringe (Ga. 25) and attached to a stereotaxic device. The syringe needle was then inserted 6 mm deep into the caudate nucleus and the cell suspension (10^5 cells in 10 μl) was slowly injected over 2 minutes. RG2TK+ cells were injected into the left hemisphere, and RG2 cells were injected into the right hemisphere. Bone wax was applied to cover the skull defect and the scalp was closed with 4.0 silk suture. Subcutaneous inoculations (10^6 cells in 50 μl) were also performed (RG2TK+ cells into the left flank and RG2 cells into the right flank). After the procedure, the animals were marked and placed in standard cages with water and Rodent LabChow #5001 (Purina Mills, Inc.) ad libitum. Comparison of different "marker substrates" for identifying HSV1-TK expression in animals After 10 days of tumor growth, both animals received i.v. injections of [^123 I]-IUdR (400 uCi) and [^14 C]-FIAU (10 uCi). Radioactivity was allowed to clear from the body over 24 hours to reduce tissue background activity, predominantly due to radiolabelled iodide, the major metabolite of [^123 I]-IUdR. [Tjuvajev, J. G., Muraki, A., Ginos, J., Berk, J., Koutcher, J., Ballon, D., Beattie, B., Finn, R., and Biasberg, R., J. Nucl. Med., 34: 1152-62, 1993; Tjuvajev, J. G., Macapinlac, H. A., Daghighian, F., Scott, A. M., ginos, J. Z., Finn, R. D., Kothari, P., Desai, R., Zhang, Z., Beattie, B., Graham, M., Larson, S., and Blasberg, R. G., J. Nucl. Med., 35: 1407-17, 1994] The rats were killed at 24 hours under anesthesia; samples of tumor and adjacent tissue were disected and weighed, blood and plasma were obtained, and radioactivity was measured. Decay corrected ^123 I-radioactivity was assayed in a Packard AutoGamma 5550 Spectrometer; samples were stored in a refrigerator for 1 week to allow for ^123 I decay (>12 half lives) and ^14 C-radioactivity was measured in a Packard B1600 TriCarb beta spectrometer using external standard quench correction. Sample radioactivity was expressed as a percent of administered dose per gram of tissue of per unit volume of fluid.
# [1] = Quantitative autoradiography of 2-[14C]-FIAU after in vivo transfection of RG2 tumors by the STK retrovirus; design: species or system rat; settings: rat, iv, 50 uCi
# Procedure: (§1) Imaging in vivo transfection of RG2 tumors by the STK retrovirus in experimental animals. […] The left hemisphere was inoculated with gp-STK-A2 vector-producer cells only. Ten days after inoculation, animals were injected i.v. with 50 uCi of 2-[^14 C]-FIAU, killed 24 hours later and the brain was processed for QAR and histology. The HSV1-tk transfected tumor was well visualized on the autoradiographic image (FIG. 11B). […] Surrounding normal brain and the area inoculated only with gp-STK-A2 vector-producer cells are poorly or not at all visualized. […] Quantitative analysis yielded mean activities of 0.34±0.24% dose/g for the in vivo transduced RG2(TK+) and 0.028±0.023% dose/g for the gp-STK-A2 vector-producer cell inoculated area prior to rinsing.
# [2] = tested on: in vivo transduced RG2(TK+) tumor; test: as above; design: species or system rat; settings: 24 h
# Procedure: as §1
# [3] = Calculated permeability surface area product (PS) of the cerebral capillaries; design: unit not given here
# Description: Passage of the nucleosides across the blood brain barrier (BBB) is an important factor to consider in the design of radiolabelled 2'-fluoro-nucleoside analogues for imaging HSV1-TK expression in the brain. […] It is known that brain capillary permeability for many compounds is related to their octanol/water partition coefficient (P) and molecular weight. [Levin, V. N. J. Med. Chem., 23: 682-4, 1980] Several authors have described a relationship between the brain capillary permeability and log P or log P·Dm, where Dm is a measure of diffusibility. […] [Dischino, D. D., Welch, M. J., Kilbourn, M. N., and Raichle, M. E., J. Nucl. Med., 24: 1030-8, 1983] […] Fenstermacher, J. D. Drug transfer across the blood brain barrier. In: Topics in Pharmaceutical Sciences. Ed.: Breimer, D. D., and Speiser, P. Amsterdam: Elsevier, pp. 143-54, 1983; Fenstermacher, J. D., and Rapoport, S. I. In: Handbook of Physiology. The Cardiovascular System. Microcirculation. Bethesda, Md.: Am. Physiol. Soc., sect. 2, Vol. IV, pt. 2, chapt. 21, p. 969-1000, 1984; Fenstermacher, J. D. In: Implications of Blood-Brain Barrier and Its Manipulation. Basic Science Aspects. Ed. by Neuwelt, E., New York: Plenum, Vol. 1, Chapt. 6, pp. 132-55, 1988]
# HSV1-TK = HSV1-TK (Human alphaherpesvirus 1 strain 17, UniProt P0DTH5); test: Accumulation of radiolabelled marker substrates in RG2TK+ transduced and RG2 wild-type cells, normalized to TdR; assay type: cell-based, herpes simplex virus
# Procedure: Source of radiolabelled "marker substrates". […] No carrier-added 5-[^123 I]-deoxyuridine (IUdR) was prepared by reacting 2-deoxyuridine (UdR) with carrier-free ^123 I-labelled sodium iodide in an iodogen coated reaction vial.
# Comparison of "marker substrates" for identifying HSV1-tk gene expression in tissue culture. […] Each of these substrates were developed for or used as an anti-viral agent; they are phosphorylated by HSV1-TK and can be radiolabelled for noninvasive imaging.
# Wild-type (nontransduced) RG2 cells were studied as a reference control. […] The cells were dislodged from the Petri dishes with a soft scraper, poured into 15 ml conical tubes, centrifuged and the medium aspirated. The tubes were cut to facilitate removing cells; they were blotted, placed in pre-weighed vials, weighed and prepared for counting. Samples were assayed for ^3 H- and ^14 C-radioactivity using a Packard B1600 TriCarb beta spectrometer using dual-channel and external standard splash and quench correction techniques. The medium was also counted before and following incubation. The data was expressed as a harvested cell-to-medium concentration ratio (dpm/g cells.div.dpm/ml medium).
# Data analysis. […] These two related measures are useful to evaluate the intensity of the images (e.g., high "sensitivity") and the ability to differentiate between HSV1-TK and endogenous-TK in the images (e.g., high "selectivity"). The "selectivity" measure is not interpreted as a relative sensitivity (i.e., a value of 1 indicating equal sensitivity) of the substrate to HSV1-TK vs. endogenous-TK. […] They are intended for the direct comparison of substrates only.
# HSV1-TK, sequence (P0DTH5 whole entry): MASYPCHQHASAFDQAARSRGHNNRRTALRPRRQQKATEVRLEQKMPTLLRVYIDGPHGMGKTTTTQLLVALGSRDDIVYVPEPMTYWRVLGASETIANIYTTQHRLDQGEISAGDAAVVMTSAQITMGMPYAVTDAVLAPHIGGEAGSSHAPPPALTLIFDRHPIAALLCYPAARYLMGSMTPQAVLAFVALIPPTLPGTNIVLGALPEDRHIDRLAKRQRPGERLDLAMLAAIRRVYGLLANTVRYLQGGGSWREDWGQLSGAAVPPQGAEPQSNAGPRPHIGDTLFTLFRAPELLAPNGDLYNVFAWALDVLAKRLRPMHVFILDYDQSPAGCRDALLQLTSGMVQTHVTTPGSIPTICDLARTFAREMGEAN
structure (smiles),measurement,setting,value
"O=c1[nH]c(=O)n([C@@H]2O[C@H](CO)[C@@H](O)[C@@H]2F)cc1I [FIAU, 2'-fluoro-5-iodo-1-β-D-arabinofuranosyl-uracil]",Sensitivity* (uptake in RG2TK+ tumor - uptake in RG2 tumor)/(HSV1TK mRNA/S28 RNA IOD in RG2TK+ cells),RG2TK+ and RG2 tumors; RG2TK+/RG2 i.c. tumors,0.0025
same,Sensitivity* (uptake in RG2TK+ tumor - uptake in RG2 tumor)/(HSV1TK mRNA/S28 RNA IOD in RG2TK+ cells),RG2TK+ and RG2 tumors; RG2TK+/RG2 s.c. tumors,0.0150
same,tissue uptake at 24 h,"[1]; gp-STK-A2 vector-producer cell inoculated area, prior to rinsing, read-out: mean activity",0.028 ± 0.023 %ID/g
same,tissue uptake at 24 h,"[1]; in vivo transduced RG2(TK+) tumor, prior to rinsing, read-out: mean activity",0.34 ± 0.24 %ID/g
same,tissue uptake at 24 h,"[1]; in vivo transduced RG2(TK+) tumor, read-out: peak activity",0.96 %ID/g
same,adjacent brain activity,[2]; level of detection on the autoradiograms,below the level of detection
same,peak activity,[2]; in vivo transduced RG2(TK+) tumor,0.96 % dose/g
same,PS*,[3]; calculated from measured log P and MW: log(PS)=5.2+log(P·Dm),0.59
same,PS+,[3]; calculated from published log P and MW: log(PS)=5.2+log(P·Dm),0.59
same,Sensitivity* Δ(substrate/TdR)/Δ(HSV1TK mRNA/S28 RNA IOD),HSV1-TK; Data from FIG. 5,0.0090
same,Sensitivity* Δ(substrate/TdR)/Δ(HSV1TK mRNA/S28 RNA IOD),HSV1-TK; Data from FIG. 7B (different RG2TK cell lines),0.0086
